Reference: patent US20230075856A1, “CYCLIC SULFAMIDE COMPOUNDS FOR TREATMENT OF HBV” (Assembly Biosciences, Inc., priority 2018, published 2023)

These compounds were tested on HBV viral load production from HepAD38 cells (assay: Viral production from HepAD38 cells: viral load in supernatant by qPCR of the HBV core sequence). Conditions: 5 days incubation, qPCR of supernatant HBV DNA vs DMSO control, read-out: viral load lowering EC50 (Activity).
Type: cell-based
How it was run: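 HepAD38 cells seeded at 50,000/well in tetracycline-free medium with 2% FBS, treated with compounds (final top concentration 10 μM) for 5 days at 37 °C. Supernatant HBV DNA quantified by TaqMan qPCR of core sequence against HBV DNA standards, relative to DMSO controls; EC50 by four-parameter logistic fit.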
With `COc1ccc(CNC(=O)C2CC(C(=O)Nc3ccc(F)c(Cl)c3)N(C)S(=O)(=O)N2)cc1` (single isomer, unassigned) [Compound 717-ISOMER-B, N3-(3-chloro-4-fluoro-phenyl)-N5-[(4-methoxyphenyl)methyl]-2-methyl-1,1-dioxo-1,2,6-thiadiazinane-3,5-dicarboxamide] the EC50 was 50 to 100 nM.
`CN1C(C(=O)Nc2ccc(F)c(Cl)c2)CC(C(=O)NCc2ccccc2)NS1(=O)=O` (single isomer, unassigned) [Compound 718-ISOMER-B, N5-benzyl-N3-(3-chloro-4-fluorophenyl)-2-methyl-1,1-dioxo-1,2,6-thiadiazinane-3,5-dicarboxamide] was tested, and the EC50 was 100 to 10000 nM.
Compound `C[C@@H](NC(=O)C1CC(C(=O)Nc2ccc(F)c(Cl)c2)N(C)S(=O)(=O)N1)c1ccccc1` (single isomer, unassigned) [Compound 719-ISOMER-B] has an EC50 of 100 to 10000 nM.
For `COc1cccc(CNC(=O)C2CC(C(=O)Nc3ccc(F)c(Cl)c3)N(C)S(=O)(=O)N2)c1` (single isomer, unassigned) [Compound 721-ISOMER-B, N3-(3-chloro-4-fluoro-phenyl)-N5-[(3-methoxyphenyl)methyl]-2-methyl-1,1-dioxo-1,2,6-thiadiazinane-3,5-dicarboxamide], the EC50 was 100 to 10000 nM.
In the case of `CN1C(C(=O)Nc2ccc(F)c(Cl)c2)CC(C(=O)NCc2ccc(Cl)cc2)NS1(=O)=O` (single isomer, unassigned) [Compound 729-ISOMER-B, N3-(3-chloro-4-fluoro-phenyl)-N5-[(4-chlorophenyl)methyl]-2-methyl-1,1-dioxo-1,2,6-thiadiazinane-3,5-dicarboxamide], the EC50 is reported as 100 to 10000 nM.
For `CN1C(C(=O)Nc2ccc(F)c(Cl)c2)CC(C(=O)NCc2cccc(Cl)c2)NS1(=O)=O` (single isomer, unassigned) [Compound 730-ISOMER-B, N3-(3-chloro-4-fluorophenyl)-N5-[(3-chlorophenyl)methyl]-2-methyl-1,1-dioxo-1,2,6-thiadiazinane-3,5-dicarboxamide], the EC50 was 100 to 10000 nM.
Compound `Cc1c(CNC(=O)C2CC(C(=O)Nc3ccc(F)c(Cl)c3)N(C)S(=O)(=O)N2)cnn1C` (single isomer, unassigned) [Compound 740-ISOMER-B, N3-(3-chloro-4-fluoro-phenyl)-N5-[(1,5-dimethylpyrazol-4-yl)methyl]-2-methyl-1,1-dioxo-1,2,6-thiadiazinane-3,5-dicarboxamide] has an EC50 of 100 to 10000 nM.
In the case of `CCc1nc(CNC(=O)C2CC(C(=O)Nc3ccc(F)c(Cl)c3)N(C)S(=O)(=O)N2)cs1` (single isomer, unassigned) [Compound 742-ISOMER-B, N3-(3-chloro-4-fluoro-phenyl)-N5-[(2-ethylthiazol-4-yl)methyl]-2-methyl-1,1-dioxo-1,2,6-thiadiazinane-3,5-dicarboxamide], the EC50 is reported as under 50 nM.
With `CC(C)OC(=O)N1CCC(NC(=O)C2CC(C(=O)Nc3ccc(F)c(Cl)c3)N(C)S(=O)(=O)N2)CC1` (single isomer, unassigned) [Compound 766-ISOMER-B, isopropyl 4-[[5-[(3-chloro-4-fluoro-phenyl)carbamoyl]-6-methyl-1,1-dioxo-1,2,6-thiadiazinane-3-carbonyl]amino]piperidine-1-carboxylate] the EC50 was 50 to 100 nM.
`CN1C(C(=O)Nc2ccc(F)c(Cl)c2)CC(C(=O)NC2CCN(C(=O)OC(C)(C)C)CC2)NS1(=O)=O` (single isomer, unassigned) [Compound 767-ISOMER-B, tert-butyl 4-[[5-[(3-chloro-4-fluoro-phenyl)carbamoyl]-6-methyl-1,1-dioxo-1,2,6-thiadiazinane-3-carbonyl]amino]piperidine-1-carboxylate] was tested, and the EC50 was 100 to 10000 nM.
`CN1C(C(=O)Nc2ccc(F)c(Cl)c2)CC(C(=O)NC2CCN(c3ccccn3)CC2)NS1(=O)=O` (single isomer, unassigned) [Compound 769-ISOMER-B, N3-(3-chloro-4-fluoro-phenyl)-2-methyl-1,1-dioxo-N5-[1-(2-pyridyl)-4-piperidyl]-1,2,6-thiadiazinane-3,5-dicarboxamide] was tested, and the EC50 was 100 to 10000 nM.
`CN1C(C(=O)Nc2ccc(F)c(Cl)c2)CC(C(=O)NC2CCN(C(=O)C3CC3)CC2)NS1(=O)=O` (single isomer, unassigned) [Compound 854-ISOMER-B, N3-(3-chloro-4-fluoro-phenyl)-N5-[1-(cyclopropanecarbonyl)-4-piperidyl]-2-methyl-1,1-dioxo-1,2,6-thiadiazinane-3,5-dicarboxamide] gave an EC50 of 100 to 10000 nM.

Same assay, conditions: Hepatitis B virus, HePAD38, 120 h, 5 days incubation, qPCR of supernatant HBV DNA vs DMSO control, read-out: viral load lowering EC50 (Activity)
`Cc1cccc(CNC(=O)C2CC(C(=O)Nc3ccc(F)c(Cl)c3)N(C)S(=O)(=O)N2)n1` (single isomer, unassigned) [Compound 716-ISOMER-A, N3-(3-chloro-4-fluoro-phenyl)-2-methyl-N5-[(6-methyl-2-pyridyl)methyl]-1,1-dioxo-1,2,6-thiadiazinane-3,5-dicarboxamide] gave an EC50 of under 50 nM.
Work on `COc1ccc(CNC(=O)C2CC(C(=O)Nc3ccc(F)c(Cl)c3)N(C)S(=O)(=O)N2)cc1` (single isomer, unassigned) [Compound 717-ISOMER-A, N3-(3-chloro-4-fluoro-phenyl)-N5-[(4-methoxyphenyl)methyl]-2-methyl-1,1-dioxo-1,2,6-thiadiazinane-3,5-dicarboxamide] yielded an EC50 of under 50 nM.
With `CN1C(C(=O)Nc2ccc(F)c(Cl)c2)CC(C(=O)NCc2ccccc2)NS1(=O)=O` (single isomer, unassigned) [Compound 718-ISOMER-A, N5-benzyl-N3-(3-chloro-4-fluoro-phenyl)-2-methyl-1,1-dioxo-1,2,6-thiadiazinane-3,5-dicarboxamide] the EC50 was under 50 nM.
In the case of `C[C@@H](NC(=O)C1CC(C(=O)Nc2ccc(F)c(Cl)c2)N(C)S(=O)(=O)N1)c1ccccc1` (single isomer, unassigned) [Compound 719-ISOMER-A], the EC50 is reported as under 50 nM.
`COc1cccc(CNC(=O)C2CC(C(=O)Nc3ccc(F)c(Cl)c3)N(C)S(=O)(=O)N2)c1` (single isomer, unassigned) [Compound 721-ISOMER-A, N3-(3-chloro-4-fluoro-phenyl)-N5-[(3-methoxyphenyl)methyl]-2-methyl-1,1-dioxo-1,2,6-thiadiazinane-3,5-dicarboxamide] gave an EC50 of under 50 nM.
`CN1C(C(=O)Nc2ccc(F)c(Cl)c2)CC(C(=O)NCc2ccc(Cl)cc2)NS1(=O)=O` (single isomer, unassigned) [Compound 729-ISOMER-A, N3-(3-chloro-4-fluoro-phenyl)-N5-[(4-chlorophenyl)methyl]-2-methyl-1,1-dioxo-1,2,6-thiadiazinane-3,5-dicarboxamide] gave an EC50 of under 50 nM.
For `CN1C(C(=O)Nc2ccc(F)c(Cl)c2)CC(C(=O)NCc2cccc(Cl)c2)NS1(=O)=O` (single isomer, unassigned) [Compound 730-ISOMER-A, N3-(3-chloro-4-fluoro-phenyl)-N5-[(3-chlorophenyl)methyl]-2-methyl-1,1-dioxo-1,2,6-thiadiazinane-3,5-dicarboxamide], the EC50 was under 50 nM.
`Cc1c(CNC(=O)C2CC(C(=O)Nc3ccc(F)c(Cl)c3)N(C)S(=O)(=O)N2)cnn1C` (single isomer, unassigned) [Compound 740-ISOMER-A, N3-(3-chloro-4-fluoro-phenyl)-N5-[(1,5-dimethylpyrazol-4-yl)methyl]-2-methyl-1,1-dioxo-1,2,6-thiadiazinane-3,5-dicarboxamide] was tested, and the EC50 was under 50 nM.
Compound `CCc1nc(CNC(=O)C2CC(C(=O)Nc3ccc(F)c(Cl)c3)N(C)S(=O)(=O)N2)cs1` (single isomer, unassigned) [Compound 742-ISOMER-A, N3-(3-chloro-4-fluoro-phenyl)-N5-[(2-ethylthiazol-4-yl)methyl]-2-methyl-1,1-dioxo-1,2,6-thiadiazinane-3,5-dicarboxamide] has an EC50 of 100 to 10000 nM.
Work on `CC(C)OC(=O)N1CCC(NC(=O)C2CC(C(=O)Nc3ccc(F)c(Cl)c3)N(C)S(=O)(=O)N2)CC1` (single isomer, unassigned) [Compound 766-ISOMER-A, isopropyl 4-[[5-[(3-chloro-4-fluoro-phenyl)carbamoyl]-6-methyl-1,1-dioxo-1,2,6-thiadiazinane-3-carbonyl]amino]piperidine-1-carboxylate] yielded an EC50 of under 50 nM.
Work on `CN1C(C(=O)Nc2ccc(F)c(Cl)c2)CC(C(=O)NC2CCN(C(=O)OC(C)(C)C)CC2)NS1(=O)=O` (single isomer, unassigned) [Compound 767-ISOMER-A, tert-butyl 4-[[5-[(3-chloro-4-fluoro-phenyl)carbamoyl]-6-methyl-1,1-dioxo-1,2,6-thiadiazinane-3-carbonyl]amino]piperidine-1-carboxylate] yielded an EC50 of under 50 nM.
`CN1C(C(=O)Nc2ccc(F)c(Cl)c2)CC(C(=O)NC2CCN(c3ccccn3)CC2)NS1(=O)=O` (single isomer, unassigned) [Compound 769-ISOMER-A, N3-(3-chloro-4-fluoro-phenyl)-2-methyl-1,1-dioxo-N5-[1-(2-pyridyl)-4-piperidyl]-1,2,6-thiadiazinane-3,5-dicarboxamide] showed an EC50 of under 50 nM.
With `CN1C(C(=O)Nc2ccc(F)c(Cl)c2)CC(C(=O)NCc2ccccc2-c2cn(C)cn2)NS1(=O)=O` (single isomer, unassigned) [Compound 823-ISOMER-B, N3-(3-chloro-4-fluoro-phenyl)-2-methyl-N5-[[2-(1-methylimidazol-4-yl)phenyl]methyl]-1,1-dioxo-1,2,6-thiadiazinane-3,5-dicarboxamide] the EC50 was 100 to 10000 nM.
Work on `CN1C(C(=O)Nc2ccc(F)c(Cl)c2)CC(C(=O)NC2CCN(C(=O)C3CC3)CC2)NS1(=O)=O` (single isomer, unassigned) [Compound 854-ISOMER-A, N3-(3-chloro-4-fluoro-phenyl)-N5-[1-(cyclopropanecarbonyl)-4-piperidyl]-2-methyl-1,1-dioxo-1,2,6-thiadiazinane-3,5-dicarboxamide] yielded an EC50 of under 50 nM.
Compound `CN1C(C(=O)Nc2ccc(F)c(Cl)c2)CC(C(=O)NC2CCN(c3ncccn3)CC2)NS1(=O)=O` (single isomer, unassigned) [Compound 855-ISOMER-A, N3-(3-chloro-4-fluoro-phenyl)-2-methyl-1,1-dioxo-N5-(1-pyrimidin-2-yl-4-piperidyl)-1,2,6-thiadiazinane-3,5-dicarboxamide] has an EC50 of under 50 nM.
